Data as given in patent US12403121B2, “Anticancer rocaglamide derivatives” (priority 2018, dated 2025).
Like-named read-outs stand apart in the source and are kept apart here.

Legend:
[1] = system: Sch10545 Nf2−/− schwannoma cells; experiment: 3-day resazurin cell proliferation assay, Sch10545 schwannoma cells; type: cell-based, mouse; settings: read-out: IC50 (nM) Sch10545 Nf2−/− schwannoma cells
Experimental: (§1) The human MPNST cell lines, ST8814, STS26T, S462, T265, and luciferase-expressing ST8814-Luc, the human NF2-deficient meningioma cell line Ben-Men-1, the NJ2 mouse schwannoma cell line Sch10545, and primary human Schwann cells were propagated as previously described. Oblinger et al., Neuro-Oncol., 18:1265-1277 (2016). The Ewing sarcoma cell line A673 and the osteosarcoma cell lines, 143B and MG-63, were grown in Dulbecco's Modified Eagle's (DME) medium (Millipore-Sigma) supplemented with 10% fetal bovine serum (FBS; Atlanta Biological). The silvestrol-sensitive 697 and silvestrol-resistant 697-R pre-B acute lymphoblastic leukemia cells (Gupta et al., AAPS J., 13:357-364 (2011)), the Ewing sarcoma cell line TC32, the osteosarcoma cell lines, Saos2 and OS17, and the rhabdomyosarcoma cell line RD were cultivated in RPMI 1640 medium (Millipore-Sigma) plus 10% FBS.
(§2) Actively-growing cells were seeded in 96-well plates (Sarstedt) at 2,000 cells/well for Ben-Men-1 and RD cells, 30,000 cells/well for 697 and 697-R cells, and 4,000 cells/well for all other cell lines. The following day, cells were treated with various concentrations of each compound or and 0.05% of DMSO as the control for six days for MG-63 cells or three days for all remaining cell lines. Cell proliferation was assessed using resazurin assays and the IC50 value calculated. Cell cycle analysis was performed accordingly. Burns et al., Cancer Res., 73:792-803 (2013).
(§3) To search for compounds with better drug-like properties, the inventors conducted a side-by-side comparison of ten rocaglates lacking the dioxanyl ring with silvestrol for growth-inhibitory activity in a panel of MPNST, schwannoma, and meningioma cell lines, which they had previously shown to be sensitive to the antiproliferative action of silvestrol. […] The average IC50 value of each rocaglate was determined by 3-day resazurin proliferation assays. […] Further structure and activity comparison discerned some positions on the cyclopenta[b]benzofuran scaffold that affected the antiproliferative activity of rocaglates.

[2] = system: Ben-Men-1 NF2−/− meningioma cells; experiment: 3-day resazurin cell proliferation assay, Ben-Men-1 meningioma cells; type: cell-based, human; settings: read-out: IC50 (nM) Ben-Men-1 NF2−/− meningioma cells
Experimental: as §1, §2, §3

[3] = system: STS26T NF1+/+ MPNST cells; experiment: 3-day resazurin cell proliferation assay, STS26T MPNST cells; type: cell-based, human; settings: read-out: IC50 (nM) STS26T NF1+/+ MPNST cells
Experimental: as §1, §2, §3

[4] = system: ST8814 NF1−/− MPNST cells; experiment: 3-day resazurin cell proliferation assay, ST8814 MPNST cells; type: cell-based, human; settings: read-out: IC50 (nM) ST8814 NF1−/− MPNST cells
Experimental: as §1, §2, §3

[5] = system: panel of MPNST, schwannoma, and meningioma cell lines; experiment: Side-by-side growth inhibition comparison with silvestrol in a cell line panel; type: cell-based; settings: all cell lines tested
Experimental: as §2, §3

[6] = system: STS26T and ST8814 MPNST cells; experiment: Flow cytometry cell cycle analysis; type: cell-based, human; settings: one- or two-IC50 doses, three days
Experimental: as §2

STS26T cells = experiment: Western blots of treated MPNST cells; type: cell-based, human; settings: 1 or 2 IC50
Experimental: FIGS. 2A and 2B provide images showing that DDR and Roc increase caspase and PARP cleavage and elevated the levels of γH2AX while decreasing the expression of AKT and ERKs in MPNST cells. (A) Protein lysates prepared from STS26T cells treated for 3 days with 1 or 2 IC50 of DDR or Roc were analyzed by Western blots for the expression of various apoptosis-related proteins and mitogenic kinases AKT and ERK1/2. GAPDH served as a loading control. (B) Western blot analysis was performed on lysates from STS26T cells treated for 1 and 2 days with 1 or 2 IC50 of DDR for the expression of the DNA-damage response biomarker phosphorylated H2A.X (γH2A.X). As a positive control, lysates from HMS-97 human malignant schwannoma cells irradiated with 4 Grays (Gy) of X-ray were used.
(§4) Subconfluent cells were treated with the indicated doses of Roc or DDR for 24-72 hours and then harvested in cell lysis buffer (Cell Signaling Technology) containing 1 mM phenylmethylsufonylfluoride and protease inhibitor cocktail (Sigma-Aldrich). The protein content in cleared lysates was quantitated using the microBCA assay (ThermoFisher). Equal amounts of protein were run in sodium dodecyl sulfate-polyacrylamide gels and electrotransferred onto Immobilon-FL PVDF membranes (Millipore). The antibodies used were directed against: MDR1/ABCB1 (#13978), insulin-like growth factor-1 receptor β subunit (IGF-1Rβ; #9750), AKT (#9272), ERK1/2 (#4695), glyceraldehyde-3-phosphate dehydrogenase (GAPDH; #5174), caspase-3 (#9662), caspase-7 (#9492), cleaved caspase-7 (#9491), poly(ADP-ribose) polymerase (PARP; #9532), cleaved PARP (#5625), and phospho-histone H2A.X (pH2A.X[Ser′^39]; #9718; all from Cell Signaling Technology), NKX2.2 (sc-514161), LSD1 (sc-136174), and survivin (sc-17779; Santa Cruz Biotechnology), and FLI1 (ab15289) and cleaved caspase-3 (CC3; ab32042; Abeam). Protein bands were detected using IRDye® infrared fluorescent dye-labeled secondary antibodies and scanning on an Odyssey CLx imaging system (LI-COR Biosciences) using the appropriate fluorescent channel at a resolution of 84 μm.
To confirm induction of apoptosis in rocaglamide-treated MPNST cells, the inventors analyzed protein expression of several markers important for this process. […] A concomitant decrease in the amounts of intact caspases 3 and 7 and PARP was observed, consistent with the enhanced cleavage of these apoptotic markers and possibly due to direct effects of these rocaglamides on protein translation. Likewise, the levels of the pro-survival kinases AKT and ERK1/2 were diminished in rocaglamide-treated MPNST cells.

[7] = system: A673, TC32, 143B, MG-63, Saos2, OS17 and RD sarcoma cell lines; experiment: Cell proliferation in Ewing sarcoma, osteosarcoma and rhabdomyosarcoma cell lines; type: cell-based
Experimental: as §1, §2
Since MPNSTs comprise only ˜2% of all sarcomas (Farid et al. Oncologist, 19:193-201 (2014)), the inventors expanded their testing of Roc and DDR to three other more prevalent sarcomas particularly in children and young adults: Ewing sarcoma, osteosarcoma, and rhabdomyosarcoma.

[8] = system: TC32 Ewing sarcoma, 143B osteosarcoma, and RD rhabdomyosarcoma cells; experiment: Western blots of treated sarcoma cells; type: cell-based
Experimental: FIGS. 7A-7C provide images showing DDR and Roc reduce multiple signaling proteins important for the growth and survival of sarcoma cells. Lysates prepared from TC32 Ewing sarcoma (A), 143B osteosarcoma (B), and RD rhabdomyosarcoma (C) cells were treated 1 and 2 days with the indicated concentrations of DDR or Roc and analyzed by Western blotting for the expression of various oncogenic driver proteins. GAPDH was used as a loading control.
as §4
To further examine the molecular mechanisms underlying the antiproliferative effects of rocaglamides, the inventors treated TC32 Ewing sarcoma, 143B osteosarcoma, and RD rhabdomyosarcoma cells with 1- or 2-IC50 dose of DDR or rocaglamide for 1-2 days followed by Western blotting for several known drivers of cell survival and proliferation. […] They also observed reduction of the IGF-1Rβ levels in rocaglamide-treated MPNST cells. In addition, Roc and DDR decreased the levels of AKT, ERKs, cyclin D1 and survivin in treated TC32, 143B, and RD cells (FIG. 7). Intriguingly, the oncogenic fusion protein EWS-FLI1, which acts as an aberrant transcription factor in Ewing sarcoma, was not affected in Roc- and DDR-treated TC32 Ewing sarcoma cells (FIG. 7A). […] However, the expression of lysine demethylase 1 (LSD1), which modulates EWS-FLI1 transcriptional activity (Sankar et al., Oncogene, 32:5089-5100 (2013)), and NKX2.2, an EWS-FL11-regulated gene necessary for oncogenic transformation (Smith et al., Cancer Cell, 9:405-416 (2006)), were diminished by these rocaglamides in TC32 cells (FIG. 7A).

[9] = 3-day resazurin proliferation assay, average IC50

How did the IC50 [1, 9] turn out when `COc1cc(OC)c2c(c1)OC1(c3ccc4c(c3)OCO4)C(c3ccccc3)CC(O)C21O` (centres unmarked) [4′-demethoxy-3′,4′-methylenedioxyrocaglaol] was run?
The IC50 was 65 nM.

What about the IC50 [2, 9] of the same compound?
The IC50 was 85 nM.

And the IC50 [3, 9]?
Its IC50 is 55 nM.

What about the IC50 [4, 9] of the same compound?
Its IC50 is 120 nM.

With `COc1cc(OC)c2c(c1)OC1(c3ccc4c(c3)OCO4)C(c3ccccc3)CC(O)C21OC` (centres unmarked) [8b-O-methyl-4′-demethoxy-3′,4′-methylenedioxyrocaglaol] as the compound, how does the IC50 [1, 9] read?
Its IC50 is > 2500 nM.

And the IC50 [2, 9]?
The IC50 was > 2500 nM.

What about the IC50 [3, 9] of the same compound?
The IC50 was 5000 nM.

And the IC50 [4, 9]?
The IC50 was 10000 nM.

Which IC50 [1, 9] does the source give for `COc1ccc([C@@]23Oc4cc(OC)cc(OC)c4[C@]2(OC)[C@H](O)C[C@H]3c2ccccc2)cc1` [8b-O-methylrocaglaol] here?
Its IC50 is > 20000 nM.

And the IC50 [2, 9]?
The IC50 was > 20000 nM.

What about the IC50 [3, 9] of the same compound?
The IC50 was > 20000 nM.

And the IC50 [4, 9]?
The IC50 was > 20000 nM.

How did the IC50 ([1]; Mus musculus, 72 h) turn out when `COc1ccc([C@@]23Oc4cc(OC)cc(OC)c4[C@]2(O)[C@H](O)[C@H](C(N)=O)[C@H]3c2ccccc2)cc1` [Didesmethylrocaglamide] was run?
Its IC50 is 10 nM.

And the IC50 ([2]; Homo sapiens, 72 h)?
Its IC50 is 5 nM.

What about the IC50 ([3]; Homo sapiens, STS-26T, 72 h) of the same compound?
Its IC50 is 5 nM.

And the IC50 ([4]; Homo sapiens, ST88-14, 72 h)?
The IC50 was 5 nM.

And the “potency relative to silvestrol” value [5]?
The value was ~2 fold.

What about the G2/M fraction [6] of the same compound?
The G2/M fraction was “marked increase in the GVM fraction”.

And the “levels of γH2AX” value (STS26T cells; STS26T MPNST cells)?
Its value is “elevated”.

What about the “cleavage of caspases 3 and 7 and PARP” value (STS26T cells; STS26T cells, 3 days) of the same compound?
Its value is “increased cleavage”.

What about the “expression of AKT and ERKs” value (STS26T cells; STS26T cells, 3 days) of the same compound?
Its value is “decreasing”.

What about the “IC50 values of DDR compared with Roc” value ([7]; every sarcoma cell line tested) of the same compound?
The value was “lower IC5O values than Roc”.

And the “activity against sarcoma cell lines” value ([7]; two Ewing sarcoma, four osteosarcoma, one rhabdomyosarcoma cell lines)?
Its value is “highly active”.

What about the “levels of the β subunit of IGF-1R” value ([8]; 1- or 2-IC50 dose, 1-2 days, all three sarcoma cell lines) of the same compound?
The value was “reliably reduced”.

And the “levels of AKT, ERKs, cyclin D1 and survivin” value ([8]; TC32, 143B, and RD cells, 1- or 2-IC50 dose, 1-2 days)?
Its value is “decreased”.

And the “EWS-FLI1 fusion protein level” value ([8]; TC32 Ewing sarcoma cells)?
Its value is “not affected”.

And the “expression of LSD1 and NKX2.2” value ([8]; TC32 cells)?
The value was “diminished”.

For `COC(=O)C1C(O)C2(O)c3c(OC)cc(OC)cc3OC2(c2ccc3c(c2)OCO3)C1c1ccccc1` (centres unmarked) [Methyl 4′-demethoxy-3′,4′-methylenedioxyrocaglate], which IC50 [1, 9] is on record?
The IC50 was 60 nM.

And the IC50 [2, 9]?
The IC50 was 80 nM.

And the IC50 [3, 9]?
Its IC50 is 35 nM.

And the IC50 [4, 9]?
Its IC50 is 70 nM.

Which IC50 [1, 9] does the source give for `COC(=O)C1C(O)C2(OC)c3c(OC)cc(OC)cc3OC2(c2ccc3c(c2)OCO3)C1c1ccccc1` (centres unmarked) [Methyl 8b-O-methyl-4′-demethoxy-3′,4′-methylenedioxyrocaglate] here?
Its IC50 is 1900 nM.

What about the IC50 [2, 9] of the same compound?
Its IC50 is 3800 nM.

What about the IC50 [3, 9] of the same compound?
The IC50 was 1300 nM.

And the IC50 [4, 9]?
The IC50 was 2000 nM.

`COC(=O)C1C(O)C2(OC)c3c(OC)cc(OC)cc3OC2(c2ccc(OC)cc2)C1c1ccccc1` (centres unmarked) [Methyl 8b-O-methylrocaglate] was tested. Which IC50 [1, 9] did it give?
Its IC50 is 9300 nM.

What about the IC50 [2, 9] of the same compound?
The IC50 was > 10000 nM.

And the IC50 [3, 9]?
The IC50 was ≥ 10000 nM.

And the IC50 [4, 9]?
The IC50 was > 20000 nM.

For `COC(=O)[C@H]1[C@@H](O)[C@@]2(O)c3c(OC)cc(OC)cc3O[C@@]2(c2ccc(OC)cc2)[C@@H]1c1ccccc1` [Methyl rocaglate], which IC50 [1, 9] is on record?
Its IC50 is 50 nM.

And the IC50 [2, 9]?
The IC50 was 55 nM.

What about the IC50 [3, 9] of the same compound?
The IC50 was 25 nM.

And the IC50 [4, 9]?
Its IC50 is 35 nM.

How did the IC50 ([1]; Mus musculus, 72 h, 3-day resazurin proliferation assay, average IC50) turn out when `COc1ccc([C@@]23Oc4cc(OC)cc(OC)c4[C@]2(O)[C@H](O)C[C@H]3c2ccccc2)cc1` [Rocaglaol] was run?
Its IC50 is 60 nM.

What about the IC50 ([2]; Homo sapiens, 72 h, 3-day resazurin proliferation assay, average IC50) of the same compound?
The IC50 was 100 nM.

What about the IC50 ([3]; Homo sapiens, STS-26T, 72 h, 3-day resazurin proliferation assay, average IC50) of the same compound?
Its IC50 is 40 nM.

What about the IC50 ([4]; Homo sapiens, ST88-14, 72 h, 3-day resazurin proliferation assay, average IC50) of the same compound?
The IC50 was 90 nM.
